# Source: patent US6525057B2, “Sustained release ranolazine formulations” (CV Therapeutics, Inc., priority 1998, dated 2003)
# Read-outs that look alike come from different tables or passages of the source.
# Tests used:
# [1] = system: patients with stable angina pectoris; conditions: cited from earlier work; for increase in total exercise duration (±SEM) compared with baseline: after 4 weeks, 1 hour after medication (peak effect), P=NS vs placebo
# [2] = Solubility of ranolazine in aqueous solutions by pH; format: physicochemical
# healthy male volunteers = test: Example 8: safety and tolerability of SR 1500 and 2000 mg bid; format: in vivo, human; conditions: for subjects too symptomatic on standing to complete BP measurements: usually 2-6 hours post-dose; for reduction in orthostatic systolic BP: statistically significant
# Procedure: (§1) The study was performed with ascending doses of sustained release ranolazine dosage forms. Before and at intervals during and after the dosing period, blood samples were drawn for ranolazine assay and blood pressure, heart rate, ECG and symptoms were monitored throughout. Data summaries were reviewed after each phase before proceeding to the next phase of the study.
# (§2) Eight subjects, all healthy male volunteers aged between 18 and 40 entered and all completed the study and were available for pharmacokinetic and safety analysis. The subjects were each given doses of the various types of ranolazine free base in the form of sustained release tablets including 500 mg and 750 mg tablets or with matching placebo as necessary (2×750 mg size plus 1×500 mg size) to make unit oral doses of 1500 and 2000 mg.
# (§3) In each phase: one dose bid for four days with a single dose on Day 5. On day 5 each volunteer underwent a full pharmacokinetic profile including supine and erect blood pressure (BP) and heart rate, ECG data, adverse events, clinical chemistry and hematology results, urinalysis results.
# (§4) These tests were made using two-sided t-tests with estimates of variability from the ANOVA models. Steady state was also assessed by comparing means for C48h, C72h and C96h using a mixed effects ANOVA model and untransformed and log, transformed data. For hemodynamic parameters, Day 1 pre-dose treatment means and Day 5 data were compared across treatments via two-sided t-tests using estimates of variability from mixed effects ANOVA models. Ninety and 95% confidence intervals were calculated for the treatment comparisons. No adjustments were made for multiple comparisons.
# [3] = Example 8: Day 5 pharmacokinetics of racemic ranolazine and enantiomers, SR 1500 and 2000 mg bid; format: in vivo, human; conditions: for Tmax / Cmax / AUC: male, human, plasma, oral; for AUC: read-out: AUC96-108h; for differences in the pharmacokinetic parameters of the enantiomers: multiple dosing with the SR formulation
# Procedure: This Example evaluated the safety and tolerability of administering racemic ranolazine free base formulations as in Example 2D. The individual and mean concentrations of racemic ranolazine and its enantiomers, (R)-(+)-N-(2,6-dimethylphenyl)-4-[2-hydroxy-3-(2-methoxyphenoxy)-propyl]-1-piperazineacetamide, (S)-(−)-N-(2,6-dimethylphenyl)-4-[2-hydroxy-3-(2-methoxyphenoxy)-propyl]-1-piperazineacetamide in human plasma were also determined.
# as §1, §2, §3, §4
# [4] = system: patients with chronic stable angina pectoris; test: Example 4: safety, hemodynamics and tolerability; format: in vivo, human
# Procedure: After each 1 week period, patients returned to the exercise laboratory in the morning, at least 1 hour after a light breakfast, for an ETT. This was designated the trough ETT; the trough ETTs were performed at the same time of day for each patient. After completing the trough ETT, the patient received the next scheduled blinded medication dose from the blister pack used that week. Another ETT was performed 1 hour after the administered dose. This was designated the peak ETT. Blood samples were obtained at trough (approximately 8 hours after dosing) and at peak (1 hour after dosing). Other standard laboratory tests were monitored regularly throughout the study.
# Blood pressure (by cuff) and heart rate were monitored before all ETTs, during the ETT, during the last minute of each stage of the test, at onset angina, at the point of maximum exercise, and during recovery (every minute for 4 minutes, then every 5 minutes until values returned to baseline). Heart rates also was monitored continuously and standard 12-lead ECG recordings were done immediately before exercise with the patient standing on the treadmill, at the end of each stage of exercise, at the maximally tolerated exercise load, and at the termination of exercise.
# [5] = system: patients with chronic stable angina pectoris; test: Example 4: exercise treadmill test (ETT) at peak and trough, IR regimens; format: in vivo, human; conditions: Peak, all patients, 267 mg tid IR ranolazine .2HCl
# Procedure: In this Example, the safety and anti-ischemic effects of high plasma ranolazine levels in a large group of angina patients was evaluated and the duration of any effects during steady-state dosing with bid and tid regimens was assessed. In this Example, patients with chronic stable angina pectoris who were responsive to conventional antianginal drugs were treated with 3 ranolazine .2HCl dosing regimens: 267 mg tid, 400 mg bid and 400 mg tid IR Formulations of Example 1. Exercise testing parameters and ranolazine free base concentrations were determined at peak and trough plasma levels.
# The study involved double-blind, placebo-controlled randomized treatment phase with 4 treatments (placebo, ranolazine .2HCl 400 mg bid, ranolazine .2HCl 267 mg tid, and ranolazine .2HCl 400 mg tid), 4 treatment sequences and 5 double-blind treatment periods in an extended period Latin square design on pre-qualified patients who were responsive to known antianginal therapy and had stable exercise times.
# Human patients with chronic stable angina pectoris, of at least 3 months' duration, that had responded to conventional antianginal therapy were considered candidates. […]
# [6] = cited from earlier work; for mean peak plasma concentration of ranolazine free base: 1 hour after dose; for mean trough plasma concentration: 8 hours after dose
# [7] = Day 5, 1500 mg SR bid (racemic, Example 2D)
# [8] = Day 5, 2000 mg SR bid (racemic, Example 2D)
# [9] = 1500 mg, Day 5, 1500 mg SR bid (racemic, Example 2D), read-out: Median tmax
structure (smiles),measurement,setting,value
"COc1ccccc1OCC(O)CN1CCN(CC(=O)Nc2c(C)cccc2C)CC1 (racemic) [ranolazine, (±)-N-(2,6-dimethylphenyl)-4-[2-hydroxy-3-(2-methoxyphenoxy)-propyl]-1-piperazineacetamide]",increase in total exercise duration (±SEM) compared with baseline,[1]; 30 mg tid,0.3 ± 0.2 min
same,increase in total exercise duration (±SEM) compared with baseline,[1]; 60 mg tid,0.6 ± 0.2 min
same,increase in total exercise duration (±SEM) compared with baseline,[1]; 120 mg tid,0.5 ± 0.2 min
same,USP Solubility Class,[2]; Solution pH 4.81,Freely soluble
same,USP Solubility Class,[2]; Solution pH 4.89,Soluble
same,USP Solubility Class,[2]; Solution pH 4.90,Soluble
same,USP Solubility Class,[2]; Solution pH 5.04,Soluble
same,USP Solubility Class,[2]; Solution pH 5.35,Sparingly soluble
same,USP Solubility Class,[2]; Solution pH 5.82,Slightly soluble
same,USP Solubility Class,[2]; Solution pH 6.46,Slightly soluble
same,USP Solubility Class,[2]; Solution pH 6.73,Very slightly soluble
same,USP Solubility Class,[2]; Solution pH 7.08,Very slightly soluble
same,USP Solubility Class,[2]; Solution pH 7.59 (unbuffered water),Very slightly soluble
same,USP Solubility Class,[2]; Solution pH 7.73,Very slightly soluble
same,USP Solubility Class,[2]; Solution pH 12.66,Very slightly soluble
same,subjects too symptomatic on standing to complete BP measurements,healthy male volunteers; 1500 mg SR bid,3 of 8
same,subjects too symptomatic on standing to complete BP measurements,healthy male volunteers; 2000 mg SR bid,2 of 8
same,adverse events,healthy male volunteers; SR 1500 and 2000 mg bid versus placebo,"headache, dizziness and blocked nose seemed more common on ranolazine"
same,reduction in orthostatic systolic BP,"healthy male volunteers; day 5, 1500 mg SR bid, 4 hours post-dose",−9.8 mm Hg
same,reduction in orthostatic systolic BP,"healthy male volunteers; day 5, 2000 mg SR bid, 6 hours post-dose",−8.4 mmHg
same,Cave,[3]; [7],4126 ± 1995 ng/mL
same,Cmin,[3]; [7],2932 ± 1918 ng/mL
same,Degree of fluctuation,[3]; [7],0.664
same,Cave,[3]; [8],5705 ± 2153 ng/mL
same,Cmin,[3]; [8],4149 ± 2228 ng/mL
same,Degree of fluctuation,[3]; [8],0.591
same,Steady-state plasma levels of ranolazine free base attained by,[3]; SR bid dosing,≤ 4 days
same,Tmax,[3]; [9],4 h
same,Tmax,"[3]; 2000 mg, Day 5, 2000 mg SR bid (racemic, Example 2D), read-out: Median tmax",4 h
same,Tmax,"[3]; 2000 mg, within the dose interval, SR 1500 and 2000 mg bid, read-out: tmax values post-dose",1 to 6 h
same,Cmax,[3]; [7],5280 ± 2430 ng/mL
same,AUC,[3]; [7],49500 ng·h/mL
same,Cmax,[3]; [8],7280 ± 2700 ng/mL
same,AUC,[3]; [8],68500 ng·h/mL
same,ECG intervals or complex morphology,[4]; 3 IR dosing regimens,no drug-related changes
same,"blood glucose concentrations, lipid values or liver function tests",[4]; 3 IR dosing regimens,no clinically significant changes
same,tolerability,[4]; over the plasma concentrations achieved in the study,well tolerated
same,blood pressure or heart rate,[4]; peak ranolazine plasma concentrations,not associated with changes in blood pressure or heart rate
same,double product versus placebo,"[4]; peak ranolazine plasma concentrations, any dosing regimen",no statistically significant differences
same,standing or maximum exercise double product versus placebo,"[4]; trough ranolazine plasma concentrations, per-protocol analysis, 3 dosing regimens",no statistically significant differences
same,Mean time to onset angina,[5],9.40 min
"COc1ccccc1OC[C@H](O)CN1CCN(CC(=O)Nc2c(C)cccc2C)CC1 [(+)R ranolazine, (R)-(+)-N-(2,6-dimethylphenyl)-4-[2-hydroxy-3-(2-methoxyphenoxy)-propyl]-1-piperazineacetamide]",Cave,[3]; [7],2144 ± 1115 ng/mL
same,Cmin,[3]; [7],1436 ± 1046 ng/mL
same,Degree of fluctuation,[3]; [7],0.833
same,Tmax,[3]; [9],4 h
same,Cmax,[3]; [7],2910 ± 1310 ng/mL
same,AUC,[3]; [7],25700 ng·h/mL
same,differences in the pharmacokinetic parameters of the enantiomers,[3],no differences
"COc1ccccc1OC[C@@H](O)CN1CCN(CC(=O)Nc2c(C)cccc2C)CC1 [(−)S ranolazine, (S)-(−)-N-(2,6-dimethylphenyl)-4-[2-hydroxy-3-(2-methoxyphenoxy)-propyl]-1-piperazineacetamide]",Cave,[3]; [7],2201 ± 1237 ng/mL
same,Cmin,[3]; [7],1514 ± 1201 ng/mL
same,Degree of fluctuation,[3]; [7],0.824
same,Tmax,[3]; [9],4 h
same,Cmax,[3]; [7],2940 ± 1430 ng/mL
same,AUC,[3]; [7],26400 ng·h/mL
same,differences in the pharmacokinetic parameters of the enantiomers,[3],no differences
COc1ccccc1OCC(O)CN1CCN(CC(=O)Nc2c(C)cccc2C)CC1 (centres unmarked) [ranolazine .2HCl],therapy compared with placebo,"[1]; 30, 60 and 120 mg tid",not superior to placebo
same,mean peak plasma concentration of ranolazine free base,[6]; 30 mg tid IR,94 ng/mL
same,mean trough plasma concentration,[6]; 30 mg tid IR,18 ng/mL
same,mean peak plasma concentration of ranolazine free base,[6]; 60 mg tid IR,219 ng/mL
same,mean trough plasma concentration,[6]; 60 mg tid IR,37 ng/mL
same,mean peak plasma concentration of ranolazine free base,[6]; 120 mg tid IR,510 ng/mL
same,mean trough plasma concentration,[6]; 120 mg tid IR,90 ng/mL
